These results are taken from patent US9557338B2 (SIGNAL PHARMACEUTICALS, LLC, priority 2012, dated 2017).

pIC50: −log10 of the molar value. Where two headings read alike, the source gives them in different places.

What all share (type): cell-based
Assay [1] concerns Phospho-p70S6K (T389). Briefly: MSD assay, phospho-p70S6K (T389) in cell lysates. As for the experimental part: Determination of Phospho-p70S6K (T389) in Cell Lysates.
MSD® biomarker detection assays provide a rapid and convenient method for measuring the total and phosphorylated levels of protein targets within a single small-volume sample. In the assay, an antibody for a specific protein target is coated on one electrode (or spot) per well. The samples (cell lysates) are added to the well with a solution containing the detection antibody labeled with an electrochemiluminescent (ECL) compound, MSD SULFOTAG™ label, over the course of one or more incubation periods. The total protein present in the sample binds to the capture antibodies immobilized on the working electrode surface; recruitment of the labeled detection antibody by bound phospho-p70S6K completes the sandwich. MSD Read Buffer that provides the appropriate chemical environment for ECL is added and the plate is read using an MSD SECTOR™ Imager. Inside the SECTOR Imager, a voltage is applied to the plate electrodes which cause the labels bound to the electrode surface to emit light. The instrument measures intensity of the emitted light to afford a quantitative measure of the amount of phosphorylated protein present in the sample.
Cells were plated in 96-well flat bottom plates at the required density determined for each cell line and the cells were allowed to equilibrate at 37° C., 5% CO2 overnight. The following day, the cells were treated with Compound 1 over a range of concentrations for one hour in 5% CO2 at 37° C. After the incubation period, the culture medium was removed carefully with an aspirator. The plate was placed on ice and 50 μL of 1× Tris Lysis Buffer were added to each well. The plate was placed on a shaker at 4° C. for one hour to lyse the cells. At that point, the plate was either frozen at −80° C. for later analysis or immediately assayed for phosphoproteins as described below. To monitor interassay variability, Compound 1 was compared among all plates as a reference standard.
The assay plate was incubated with 150 μL of MSD Blocking Buffer for one hour with shaking at room temperature. The plates were washed 3 times with Tris Wash Buffer. Then 35 μL of cell lysate was added to the wells and incubated for one hour with shaking at room temperature. The solution was removed from the wells and the plate was washed 3 times with wash buffer. Twenty-five microliters of the appropriate antibody solution was then incubated for one hour with shaking at room temperature. The solution was removed from the wells and the plate was washed 3 times with wash buffer. Then 150 μL of 1×MSD Read Buffer T was added to each well. The plate was read on the SECTOR Imager plate reader.

Assay [2] concerns GSK-3β. Briefly: MSD assay, GSK-3β phosphorylation in cell lysates.
Assay [3] deals with p70S6K. Briefly: Luminex multiplex assay, p70S6K phosphorylation in cell lysates.
The subject of assay [4] is Phospho-GSK3β(S9). Briefly: Luminex multiplex assay, Phospho-GSK3β(S9). The conditions noted are these: PC3 cell line; read-out: Luminex GSK-3β. In a few lines:
(§1)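 Cells (PC3; HCT-116, MDA-MB-231 and HT29 with 500 ng/mL recombinant human IGF-I for the final 10 min) treated with compound or rapamycin over a concentration range for 1 h at 37° C, 5% CO2. Lysates read by bead-based Luminex sandwich immunoassay, 3 h at room temperature, RPE anti-rabbit detection, quantified against phosphoprotein standard curves.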

Assay [5] concerns Phospho-PRAS40(T246). Briefly: Luminex multiplex assay, Phospho-PRAS40(T246). As to conditions: PC3 cell line; read-out: Luminex PRAS40. In short, it runs like this: as §1
[6] abbreviates: PC3 cell line, read-out: MSD p70S6K.
[7] abbreviates: PC3 cell line, read-out: MSD GSK-3β.
Where [8] appears, read: PC3 cell line, read-out: Luminex p70S6K.

For the molecule `COCCN1C(=O)CNc2ncc(-c3ccc(-c4nnc[nH]4)nc3C)nc21` [A-9, 1-(2-methoxyethyl)-7-(2-methyl-6-(4H-1,2,4-triazol-3-yl)pyridin-3-yl)-3,4-dihydropyrazino[2,3-b]pyrazin-2(1H)-one], the pIC50 is 6.07 in assay [1] (Homo sapiens, HCT-116, HCT116 cell line, IGF, read-out: MSD p70S6K (IGF)); 6.57 in assay [1] (Homo sapiens, U-87 MG, U87MG cell line, read-out: MSD p70S6K); less than 5.70 in assay [2] (Homo sapiens, HCT-116, HCT116 cell line, IGF, read-out: MSD GSK-3β (IGF)); less than 5.70 in assay [2] (Homo sapiens, U-87 MG, U87MG cell line, read-out: MSD GSK-3β); 6.99 in assay [3] (Homo sapiens, HCT-116, HCT116 cell line, IGF, read-out: Luminex p70S6K (IGF)); 7.42 in assay [3] (Homo sapiens, U-87 MG, U87MG cell line, read-out: Luminex p70S6K).

As to `O=c1[nH]c2ncc(-c3ccc(-c4nc[nH]n4)cc3)nc2n1CCC1CCOCC1` [C-2], the pIC50 in assay [1] (setting [6]) was 7.34; in assay [2] (setting [7]), less than 5.82; in assay [4], 6.59; in assay [3] (setting [8]), 7.52; in assay [5], 6.74.

With `Cc1nc(-c2nnc[nH]2)ccc1-c1cnc2c(n1)N(CCC1CCOCC1)C(=O)CN2` [C-9], the pIC50 was 8.40 in assay [1] (setting [6]), 6.67 in assay [2] (setting [7]), 7.37 in assay [4] and 7.43 in assay [5].

For the molecule `CCn1c(=O)[nH]c2ncc(-c3ccc(-c4ncn[nH]4)c(F)c3C)nc21` [C-12], the pIC50 in assay [1] (setting [6]) is 6.36; in assay [2] (setting [7]) it was less than 5.30; in assay [4] it was 6.03; in assay [3] (setting [8]) it was 7.10; in assay [5], 5.95.

For the molecule `COCCN1C(=O)CNc2ncc(-c3ccc(-c4nnc[nH]4)nc3C)nc21` [C-14], the pIC50 in assay [1] (setting [6]) is 7.51; in assay [2] (setting [7]), 6.44; in assay [4], 6.44; in assay [5], 7.21.

Regarding `COC1CCC(N2C(=O)CNc3ncc(-c4ccc(C(C)(C)O)nc4)nc32)CC1` (stereo not drawn) [C-15], the pIC50 in assay [1] (setting [6]) is 7.09; in assay [2] (setting [7]), less than 6.30; in assay [4] it was 6.62; in assay [3] (setting [8]), 7.49; in assay [5], 7.02.

`COC1CCC(N2C(=O)CNc3ncc(-c4ccc(-c5nnc[nH]5)nc4C)nc32)CC1` (stereo not drawn) [C-16]: the pIC50 in assay [1] (setting [6]) was 7.89; in assay [2] (setting [7]) it was 6.82; in assay [4], 6.85; in assay [3] (setting [8]) it was 8.52; in assay [5] it was 7.37.

For the molecule `CCN1C(=O)CNc2ncc(-c3ccc(-c4nnc[nH]4)nc3C)nc21` [C-54], the pIC50 was 7.51 in assay [1] (setting [6]); 6.74 in assay [2] (setting [7]); 6.43 in assay [4]; 7.89 in assay [3] (setting [8]); 7.41 in assay [5].

For `Cc1nc(-c2nnc[nH]2)ccc1-c1cnc2c(n1)N(C(C)C)C(=O)CN2` [C-69], the pIC50 in assay [1] (setting [6]) was 7.10; in assay [2] (setting [7]) it was 6.40; in assay [4] it was 6.47; in assay [5], 6.55.

With `COC1CCC(N2C(=O)CNc3ncc(-c4cnc(-c5ncn[nH]5)cc4C)nc32)CC1` (stereo not drawn) [C-93], the pIC50 in assay [1] (setting [6]) was 9.00; in assay [2] (setting [7]), less than 8.82; in assay [4], 8.70.

Consider `CCN1C(=O)CNc2ncc(-c3cnc4[nH]ccc4c3)nc21` [C-103], for which the pIC50 was less than 6.30 in assay [1] (setting [6]); less than 6.30 in assay [2] (setting [7]); 6.82 in assay [4]; 6.82 in assay [3] (setting [8]); 6.16 in assay [5].

For the molecule `O=C1CNc2ncc(-c3ccc(-c4nc[nH]n4)nc3)nc2N1C1CCC(O)CC1` (stereo not drawn) [C-140], the pIC50 is 7.15 in assay [1] (setting [6]) and less than 6.30 in assay [2] (setting [7]).

Take `Cc1cc(-c2nc[nH]n2)c(F)cc1-c1cnc2c(n1)N(CC1CCC(O)CC1)C(=O)CN2` (stereo not drawn) [C-142]: the values for the pIC50 in assay [1] (setting [6]) and in assay [2] (setting [7]) were 7.74 and less than 6.30, respectively.

In the case of `Cc1cc(-c2nc[nH]n2)c(F)cc1-c1cnc2c(n1)N(CC1CCC(O)CC1)CC(=O)N2` (stereo not drawn) [C-143], the pIC50 in assay [1] (setting [6]) is 8.40; in assay [2] (setting [7]), less than 6.30.

Turning to `O=C1CN([C@H]2CC[C@H](O)CC2)c2nc(-c3ccc(-c4nc[nH]n4)nc3)cnc2N1` [C-144], the pIC50 in assay [1] (setting [6]) and in assay [2] (setting [7]) was less than 6.30 each time.

As for `O=C1CNc2ncc(-c3cccc4[nH]ccc34)nc2N1CCC1CCOCC1` [C-145], the pIC50 in assay [1] (setting [6]) and in assay [2] (setting [7]) was less than 6.30 each time.

Consider `COC1CCC(N2CC(=O)Nc3ncc(-c4ccc(-c5ncn[nH]5)nc4)nc32)CC1` (stereo not drawn) [C-146], for which the pIC50 was 7.92 in assay [1] (setting [6]) and less than 6.30 in assay [2] (setting [7]).

As to `Cc1cc(-c2nc[nH]n2)c(F)cc1-c1cnc2c(n1)N(CC1CCC(O)CC1)C(=O)CN2` (stereo not drawn) [C-147], the pIC50 in assay [1] (setting [6]) was more than 8.82; in assay [2] (setting [7]) it was less than 6.30.

For `COC1CCC(N2CC(=O)Nc3ncc(-c4cc(F)c(-c5nc[nH]n5)cc4C)nc32)CC1` (stereo not drawn) [C-148], the pIC50 in assay [1] (setting [6]) is more than 8.82; in assay [2] (setting [7]), 7.19.

With `O=C1CN(CC2CCC(O)CC2)c2nc(-c3ccc(-c4nc[nH]n4)nc3)cnc2N1` (stereo not drawn) [C-149], the results for the pIC50 in assay [1] (setting [6]) and in assay [2] (setting [7]) were 6.76 and less than 5.30, respectively.

For the molecule `CCN1C(=O)CNc2ncc(-c3ccc(-c4ncn[nH]4)nc3)nc21` [C-150], the pIC50 in assay [1] (setting [6]) was 7.42; in assay [2] (setting [7]), less than 6.30.

On to `COCCN1C(=O)CNc2ncc(-c3ccc(-c4ncn[nH]4)nc3)nc21` [C-151], for which the figures for the pIC50 in assay [1] (setting [6]) and in assay [2] (setting [7]) were 6.92 and less than 6.30, respectively.

On to `O=C1CNc2ncc(-c3ccc(-c4nc[nH]n4)nc3)nc2N1C1CCOCC1` [C-152], for which the results for the pIC50 in assay [1] (setting [6]) and in assay [2] (setting [7]) were 7.70 and less than 6.30, respectively.

As for `O=C1CN(C2CCC(O)CC2)c2nc(-c3ccc(-c4nc[nH]n4)nc3)cnc2N1` (stereo not drawn) [C-153], the pIC50 in assay [1] (setting [6]) and in assay [2] (setting [7]) was less than 6.30 in each case.

As to `O=C1CN(CC2CCC(O)CC2)c2nc(-c3ccc(-c4nc[nH]n4)nc3)cnc2N1` (stereo not drawn) [C-154], the pIC50 is 5.82 in assay [1] (setting [6]) and less than 5.30 in assay [2] (setting [7]).

Take `Cc1cc(-c2nc[nH]n2)c(F)cc1-c1cnc2c(n1)N([C@H]1CC[C@@H](O)CC1)C(=O)CN2` [C-155]: the pIC50 in assay [1] (setting [6]) was 7.40; in assay [2] (setting [7]) it was 6.62.

Consider `COC1CCC(CN2C(=O)CNc3ncc(-c4ccc(-c5nc[nH]n5)nc4)nc32)CC1` (stereo not drawn) [C-159], for which the pIC50 in assay [1] (setting [6]) was 8.22; in assay [2] (setting [7]), less than 6.30.

On to `CO[C@H]1CC[C@@H](CN2CC(=O)Nc3ncc(-c4cc(F)c(-c5nc[nH]n5)cc4C)nc32)CC1` [C-160], for which the results for the pIC50 in assay [1] (setting [6]) and in assay [2] (setting [7]) were more than 8.82 and less than 6.30, respectively.

For the molecule `O=C1CNc2ncc(-c3ccnc4[nH]ccc34)nc2N1CCC1CCOCC1` [C-161], the pIC50 was 6.41 in assay [1] (setting [6]) and 5.55 in assay [2] (setting [7]).

As to `O=C1CNc2ncc(-c3cccc4[nH]cnc34)nc2N1CCC1CCOCC1` [C-162], the pIC50 was 5.32 in assay [1] (setting [6]) and less than 5.30 in assay [2] (setting [7]).

Consider `COC1CCC(CN2CC(=O)Nc3ncc(-c4cc(F)c(-c5nc[nH]n5)cc4C)nc32)CC1` (stereo not drawn) [C-163], for which the pIC50 in assay [1] (setting [6]) and in assay [2] (setting [7]) was less than 6.30 in each case.

Turning to `Cc1cc(-c2nc[nH]n2)ncc1-c1cnc2c(n1)N(CC1CCOCC1)CC(=O)N2` [C-164], the pIC50 was 9.00 in assay [1] (setting [6]) and 6.56 in assay [2] (setting [7]).

As for `CCN1C(=O)CNc2ncc(-c3ccc4[nH]ccc4n3)nc21` [C-166], the pIC50 in assay [1] (setting [6]) and in assay [2] (setting [7]) was less than 6.30 each time.

Consider `COC1CCC(CN2C(=O)CNc3ncc(-c4cc(F)c(-c5nc[nH]n5)cc4C)nc32)CC1` (stereo not drawn) [C-167], for which the pIC50 in assay [1] (setting [6]) and in assay [2] (setting [7]) was more than 8.82 throughout.

Take `O=C1CN(CCC2CCOCC2)c2nc(-c3c[nH]c4ncccc34)cnc2N1` [C-169]: the pIC50 is 6.38 in assay [1] (setting [6]) and 5.55 in assay [2] (setting [7]).
